The values that follow come from patent US9125384B2, “Mouse having human leukemic stem cell and leukemic non-stem cell amplified therein, and method for production thereof” (RIKEN, priority 2007, dated 2015).

In data set [1] the test system is hCD34^+hCD38^− LSCs vs non-stem AML cell fractions. In words: Post-chemotherapy apoptosis analysis of BM AML cell fractions (Annexin V/7AAD flow cytometry). The conditions noted are these: 150 mg/kg Ara-C i.p.; BM at day 3 after injection; n=3; p<0.05. The format is in vivo, mouse (NOD/SCID/IL2rγ^null) engrafted with human AML. As for the experimental part:
NOD/SCID/IL2rγ^null recipients transplanted with 10^4-10^5 sorted BM hCD34^+hCD38^− cells from Cases 4, 7 and 11 at 12-20 weeks post-transplantation were injected with 150 mg/kg Ara-C i.p. At day 3 after injection, BM was analyzed for the presence of apoptotic cells by first dividing the hCD34^+hCD38^−, hCD34^+hCD38^+ and hCD34^− fractions within the hCD45^+ gate and quantifying the viable population in each fraction by Annexin V and 7-amino-actinomycin D (7AAD) staining (BD Immunocytometry, San Jose, Calif.). Annexin V^−7AAD^− hCD45^+hCD34^+hCD38^− cells were sorted and 10^3 cells were injected intravenously into irradiated newborn NOD/SCID/IL2rγ^null recipients.
Background: Flow cytometry measures light scatter and fluorescence of single cells or particles in a stream.

The nature of data set [2]: Adverse effect of Ara-C in vivo (hemoglobin, platelet count, plasma AST). The conditions noted are these: 150 mg/kg Ara-C i.p.; day 8 after injection. As for the experimental part: Intraperitoneal (i.p.) injection of 150 mg/kg Ara-C (Biogenesis, Poole, UK) was performed in NOD/SCID/IL2rγ^null recipients transplanted with 10^4 purified BM […] cells from Cases 4 (n=2) and 7 (n=4) at 12-16 weeks post-transplantation. PB was obtained at the time of injection (day 0) and every four days thereafter and MNCs were labeled with mouse anti-hCD45 and anti-hCD33 monoclonal antibodies to determine the fraction of hCD45^+hCD33^+ cells using flow cytometry. The number of AML cells/ml PB was determined by multiplying the fraction of PB hCD45^+CD33^+ cells with total PB leukocyte count/ml in each recipient. Hemoglobin concentration, platelet count and plasma aspartate aminotransferase (AST) levels were analyzed prior to and at 8 days after Ara-C administration.

Data set [3] deals with human AML cells (hCD45^+hCD33^+). In words: In vivo anti-leukemic cytotoxicity of Ara-C in AML-engrafted NOD/SCID/IL2rγ^null recipients (PB AML cell count). More on the design: species or system mouse (NOD/SCID/IL2rγ^null) engrafted with human AML.
Data set [4] deals with human AML cells in BM cavity and endosteal surface. In words: Histology of femoral bone sections after Ara-C (HE, TUNEL, immunostaining). It counts as in vivo, mouse (NOD/SCID/IL2rγ^null) engrafted with human AML. As to conditions: day 3 after Ara-C injection, anti-hCD34/hCD38/osteopontin staining. As for the experimental part: Paraformaldehyde-fixed, decalcified, paraffin-embedded sections were prepared from femurs of the recipients transplanted with sorted hCD34^+hCD38^− AML BM cells. Each section was subjected to hematoxylin and eosin (HE) staining. TUNEL staining was performed according to standard procedures using ApopTag peroxidase in situ apoptosis detection kit (Intergene, Purchase, N.Y.) by Biopathology Institute (Oita, Japan). To determine the localization of the CD34^+ cell populations, sections were immunostained with mouse anti-hCD34 antibody (Immunotech, France) and rat anti-mouse osteopontin antibody (Immuno-Biological Laboratories, Tokyo, Japan) were used. For the quantitative localization of LSCs, enodosteal and central regions were defined as the zones within or outside twelve cells from the endosteum, respectively, as described previously (Nilsson, S. K., Johnston, H. M. & Coverdale, J. A. Spatial localization of transplanted hemopoietic stem cells: inferences for the localization of stem cell niches. Blood 97, 2293-2299 (2001)). […] A total of 10,065 cells were counted from femoral and tibial sections. For localization post-engraftment analysis, a total of 24,973 cells were counted using femoral and tibial sections prepared from recipients of BM hCD34^+hCD38^− cells from Cases 4, 10 and 11. […]

Where “and” joins values, the source holds several entries; their conditions need not be identical. Equal values may be shown once. Entries after “also recorded” stand apart in the source; their conditions may differ.

For `Nc1ccn([C@@H]2O[C@H](CO)[C@@H](O)[C@@H]2O)c(=O)n1` [Ara-C, cytosine arabinoside], the “chemosensitivity of hCD34^+hCD38^− LSCs compared with non-stem AML cell fractions (apoptosis)” value in data set [1] is given as “relative resistance to Ara-C; also recorded: more resistant to Ara-C; also recorded: relatively resistant to Ara-C treatment”. The “hematologic adverse effects (hemoglobin concentration, platelet count)” value in data set [2] was “Typical hematologic adverse effects; also recorded: anemia and thrombocytopenia in all treated mice”. In addition, the “time of nadir of AML count” value in data set [3] (single 150 mg/kg Ara-C i.p. on day 0, PB) is 8 to 12 days. For the same molecule, in data set [3] (single 150 mg/kg Ara-C i.p. on day 0, PB, 150 mg/kg), the “time of recovery of PB AML cell count (relapse)” value is 28 to 32 days and 16 to 28 days. In addition, the “PB AML burden (hCD45^+hCD33^+ cell count per ml of PB)” value in data set [3] (single 150 mg/kg Ara-C i.p., 12-16 weeks post-transplantation, monitored every four days, 150 mg/kg) is on record as “rapid decline in AML burden; also recorded: markedly reduced”. In addition, in data set [4], the “localization of apoptotic and surviving cells in femoral bone sections” value is reported as “preferential killing of cells in the middle of the BM cavity; also recorded: remain at the endosteal surface abutting murine osteoblasts; also recorded: marked segregation of apoptotic cells in the center of the bone marrow cavity”.
